From patent publication US20240009269A1 (priority 2020, published 2024)
Read-outs that look alike come from different tables or passages of the source.

Legend:
mouse brain = test: Safety of BBBO in mice (neurological deficits, MRI, histology); format: in vivo
Experimental: 273-285] in ImageJ. […] Subsequently, animals were sacrificed for further histological assessment.
In brief, each post-contrast image was first fitted into two Gaussian distributions, and the cutoff of signal intensity was determined. Data analysis and calculation of area fraction was performed using custom-written MATLAB scripts. 24 hours and 7 days after melittin treatment, animals were trans-cardially perfused with 5% sucrose in deionized water and then 4% paraformaldehyde in phosphate buffered saline. The brains were cryopreserved in 30% sucrose and cryo-sectioned in 30 μm slices. Primary antibodies used in the study are described in Table 2. Goat anti-rabbit Alexa Fluor-488 or Alexa Fluor-594 (1:250, Life Technologies) were used as secondary antibodies for fluorescence assessment using an inverted microscope (Zeiss, Axio Observer Z1). For demyelination assessment, eriochrome cyanine R staining was performed as described previously [Golubczyk, D., et al., Mol Neurobiol, 2019. 56(8): p. 5740-5748] with assessment using bright-field microscopy. Quantitation of immunohistochemistry (based on relative fluorescence intensity) and MRI analysis (based on intensity) were performed using Image J. For each mouse, three ROIs of the ipsilateral and contralateral BBBO regions were drawn, respectively.

dhBMECs monolayers = test: Melittin-induced disruption of dhBMEC monolayers (transwell assay); format: cell-based, human
Experimental: Induced pluripotent stem cell (iPSC)-derived brain microvascular endothelial cells (dhBMECs) mimic the barrier function of the human BBB. DhBMECs were differentiated as previously reported. The BC1 iPSC line derived from a healthy individual was used for all experiments. After eleven days of differentiation, cells were detached using Accutase (A1110501, Thermo Fisher Scientific), and seeded onto transwells, glass slides, or type I collagen microchannels coated overnight with 50 μg mL^−1 human placental collagen IV (Catalog Number (Cat. No.) C5533, Sigma-Aldrich) and 25 μg mL^−1 fibronectin from human plasma (Cat. No. F1141, Sigma-Aldrich). Cells have previously been characterized for expression of tight junction proteins, efflux pumps, and nutrient transporters as well as measurements of barrier function including transendothelial electrical resistance (TEER) or solute permeability. Here, cells with TEER of at least 1500 Ω cm2 were used for all experiments. After detachment, cells were cultured in BBB induction medium: human endothelial cell serum-free medium (HESFM) (Cat. No. 11111044, Thermo Fisher Scientific) supplemented with 1% human platelet poor derived serum (Cat. No. P2918, Sigma-Aldrich), 1% penicillin-streptomycin (Cat. No. 15140122, Thermo Fisher Scientific), 2 ng mL^−1 bFGF (Cat. No. 233FB025CF, Fisher Scientific), and 10 μM all-trans retinoic acid (Cat. No R2625, Sigma-Aldrich). After 24 hours, cells were further cultured in BBB maintenance medium: HESFM supplemented with 1% human platelet poor derived serum and 1% penicillin-streptomycin. Human cortical neuron HCN-2 cells (CRL-10742) were obtained from ATCC (Manassas, VA, USA). HCN-2 cells were cultured in DMEM (Cat. No. 31600091, Thermo Fisher Scientific), adjusted to contain 1.5 g L^−1 sodium bicarbonate, 4.5 g L^−1 D-glucose, and supplemented with 10% heat-inactivated FBS (Cat. No. F4135, Sigma-Aldrich), following ATCC recommendations.
Corning transwell supports (Cat. No. 3470) were coated with 25 μg mL^−1 fibronectin and 50 μg mL^−1 collagen IV overnight at 37° C. DhBMECs were seeded on transwells in BBB induction medium at 10^6 cells cm^−2. […] On day 2, the TEER for monolayers was measured using EVOM-2 and STX-100 electrode (World Precision Instruments, Sarasota, FL), and monolayers with TEER>1500 Ω cm2 were used for the permeability experiment. […] After the permeability experiment, the TEER across monolayers was measured. Dextran fluorescence in the receiving chamber and in the initial apical solution (Co) was measured using the Synergy H4 plate reader (Biotek Instruments Inc., Winooski, VT) and was converted to dextran concentrations using the dextran-fluorescein standard curves. The apparent permeability (Papp) was calculated from Formula 1 below: […]

[1] = test system: human cortical neurons (HCNs, HCN-2 cells)

CC[C@H](C)[C@H](NC(=O)CN)C(=O)NCC(=O)N[C@@H](C)C(=O)N[C@H](C(=O)N[C@@H](CC(C)C)C(=O)N[C@@H](CCCCN)C(=O)N[C@H](C(=O)N[C@@H](CC(C)C)C(=O)N[C@H](C(=O)N[C@H](C(=O)NCC(=O)N[C@@H](CC(C)C)C(=O)N1CCC[C@H]1C(=O)N[C@@H](C)C(=O)N[C@@H](CC(C)C)C(=O)N[C@H](C(=O)N[C@@H](CO)C(=O)N[C@@H](Cc1c[nH]c2ccccc12)C(=O)N[C@H](C(=O)N[C@@H](CCCCN)C(=O)N[C@@H](CCCNC(=N)N)C(=O)N[C@@H](CCCCN)C(=O)N[C@@H](CCCNC(=N)N)C(=O)N[C@@H](CCC(N)=O)C(=O)N[C@@H](CCC(N)=O)C(N)=O)[C@@H](C)CC)[C@@H](C)CC)[C@@H](C)O)[C@@H](C)O)C(C)C)C(C)C [melittin]
long-term survival (30 days) (mouse brain; 3 μM·minute): reached that endpoint without complications | mortality (mouse brain; 3 μM·minute, 11 mice): One mouse in this group died within 12 hours | neurological deficits (paralysis, seizure, or rotation) (mouse brain; 3 μM·minute, 11 mice): all animals except one woke up from anesthesia without apparent neurological deficits | GFAP, Iba1, NeuN, and caspase-3 intensities between hemispheres (mouse brain; 3 μM·minute, 24 hours): not statistically different | MRI (T2, SWI) (mouse brain; 3 μM·minute, 24 hours): no evidence of edema or inflammation on T2 scans or micro-hemorrhages on susceptibility weighted imaging (SWI) scans | GFAP and Iba1 intensity, ipsilateral vs contralateral (mouse brain; 3 μM·minute, 7 days): no statistically significant differences | MRI (mouse brain; 3 μM·minute, 7 days): no abnormalities were detected | NeuN and caspase-3 intensity in the ipsilateral hemisphere (mouse brain; 3 μM·minute, 7 days): no statistically significant change | eriochrome cyanine staining (myelin) (mouse brain; 3 μM·minute, 7 days, hippocampus): normal myelin | behavior after dosing (mouse brain; 5 μM·minute): mice displayed rotational behavior indicating neurological damage | concentrations for membrane activity (dhBMECs monolayers): 1 to 10 µM | 500 kDa dextran permeability across dhBMECs (dhBMECs monolayers; 5 μM melittin for 90 minutes, transwell): increased | concentration above which disruption is induced in confluent monolayers (dhBMECs monolayers; confluent dhBMEC monolayers): above 1 μM | cell morphology (phase contrast) (dhBMECs monolayers; dhBMECs on glass slides, 5 μM melittin for 90 minutes): cell swelling and detachment | time high viability (≥98%) is maintained ([1]; 0.75 μM melittin): ~23 min | time for which viability is largely unaffected ([1]; 5 μM melittin): about 20 minutes | time high viability (≥98%) is maintained ([1]; 5 μM melittin): ~12 min | time at which the viability reached 50% (τ1/2) ([1]; 5 μM melittin, continuous exposure): ~30 min | time high viability (≥98%) is maintained ([1]; 10 μM melittin): ~12 min | decrease of viability ([1]; dose of 100 μM·minute): < 2%
